The structures appear in SMILES notation.

For `CC(C)n1nc(-c2c(OC3CCC3)nc(N)nc2-c2ccccc2)ccc1=O` [Example 83, 6-[2-Amino-4-(cyclobutyloxy)-6-phenyl-5-pyrimidinyl]-2-isopropyl-3(2H)-pyridazinone], the melting point (commonly the temperature, or range, at which the solid turns liquid) fell in the range of 161 to 162.5 °C.

For `C=CCOc1nc(N)nc(-c2ccccc2)c1-c1ccc(=O)n(C(C)C)n1` [Example 84, 6-[4-(Allyloxy)-2-amino-6-phenyl-5-pyrimidinyl]-2-isopropyl-3(2H)-pyridazinone], the melting point is 130.5 to 132.5 °C. In turn, `C#CCOc1nc(N)nc(-c2ccccc2)c1-c1ccc(=O)n(C(C)C)n1` [Example 85, 6-[2-amino-4-phenyl-6-(2-propynyloxy)-5-pyrimidinyl]-2-isopropyl-3(2H)-pyridazinone] displayed a melting point of 145 to 146.6 °C. The same measure for `CC(C)n1nc(-c2c(OCCO)nc(N)nc2-c2ccccc2)ccc1=O` [Example 86, 6-[2-Amino-4-(2-hydroxyethoxy)-6-phenyl-5-pyrimidinyl]-2-isopropyl-3(2H)-pyridazinone]: 182 to 183 °C; for `COCCOc1nc(N)nc(-c2ccccc2)c1-c1ccc(=O)n(C(C)C)n1` [Example 87, 6-[2-Amino-4-(2-methoxyethoxy)-6-phenyl-5-pyrimidinyl]-2-isopropyl-3(2H)-pyridazinone]: 128 to 130 °C; for `CC(C)n1nc(-c2c(OCCN(C)C)nc(N)nc2-c2ccccc2)ccc1=O` [Example 88, 6-{2-Amino-4-[2-(dimethylamino)ethoxy]-6-phenyl-5-pyrimidinyl}-2-isopropyl-3(2H)-pyridazinone]: 130 to 131.5 °C. In turn, `COC(=O)COc1nc(N)nc(-c2ccccc2)c1-c1ccc(=O)n(C(C)C)n1` [Example 89, methyl {[2-amino-5-(1-isopropyl-6-oxo-1,6-dihydro-3-pyridazinyl)-6-phenyl-4-pyrimidinyl]oxy}acetate] came in with a melting point of 150 to 152.5 °C.

In turn, `CC(C)n1nc(-c2c(OCCN3C(=O)c4ccccc4C3=O)nc(N)nc2-c2ccccc2)ccc1=O` [Example 90, 2-(2-{[2-Amino-5-(1-isopropyl-6-oxo-1,6-dihydro-3-pyridazinyl)-6-phenyl-4-pyrimidinyl]oxy}-ethyl)-1H-isoindole-1,3(2H)-dione] registered a melting point of 231.5 to 232.5 °C. Molecule `CCCOc1nc(N)nc(-c2ccccc2)c1-c1ccc(=O)n(C(C)C)n1` [Example 91, 6-(2-amino-4-phenyl-6-propoxy-5-pyrimidinyl)-2-isopropyl-3(2H)-pyridazinone] yielded a melting point of 127.5 to 129 °C. On to `CC(C)n1nc(-c2c(OCCF)nc(N)nc2-c2ccccc2)ccc1=O` [Example 92, 6-[2-Amino-4-(2-fluoroethoxy)-6-phenyl-5-pyrimidinyl]-2-isopropyl-3(2H)-pyridazinone], for which the melting point was in the range of 129 to 130.5 °C. The result for `CC(C)n1nc(-c2c(OCc3ccccc3)nc(N)nc2-c2ccccc2)ccc1=O` [Example 93, 6-[2-amino-4-(benzyloxy)-6-phenyl-5-pyrimidinyl]-2-isopropyl-3(2H)-pyridazinone] reads 162 to 163 °C; that for `CC(C)n1nc(-c2c(OCc3ccccn3)nc(N)nc2-c2ccccc2)ccc1=O` [Example 94, 6-[2-amino-4-phenyl-6-(2-pyridinylmethoxy)-5-pyrimidinyl]-2-isopropyl-3(2H)-pyridazinone], 177 to 178 °C; that for `CC(C)n1nc(-c2c(OC3CCCCC3)nc(N)nc2-c2ccccc2)ccc1=O` [Example 96, 6-[2-Amino-4-(cyclohexyloxy)-6-phenyl-5-pyrimidinyl]-2-isopropyl-3(2H)-pyridazinone], 173 to 175 °C. The same measure for `CC(C)n1nc(-c2c(OC3CCOCC3)nc(N)nc2-c2ccccc2)ccc1=O` [Example 97, 6-[2-Amino-4-phenyl-6-(tetrahydro-2H-pyran-4-yloxy)-5-pyrimidinyl]-2-isopropyl-3(2H)-pyridazinone]: 207 to 209 °C.

Molecule `CC(C)n1nc(-c2c(Oc3ccccc3)nc(N)nc2-c2ccccc2)ccc1=O` [Example 98, 6-(2-Amino-4-phenoxy-6-phenyl-5-pyrimidinyl)-2-isopropyl-3(2H)-pyridazinone] returned a melting point of 218 to 221 °C. The same measure for `CC(C)n1nc(-c2c(OCC(N)=O)nc(N)nc2-c2ccccc2)ccc1=O` [Example 99, 2-{[2-amino-5-(1-isopropyl-6-oxo-1,6-dihydro-3-pyridazinyl)-6-phenyl-4-pyrimidinyl]oxy}acetamide]: 257 to 261 °C. Consider `CC(C)n1nc(-c2c(OCC(=O)O)nc(N)nc2-c2ccccc2)ccc1=O` [Example 100, {[2-amino-5-(1-isopropyl-6-oxo-1,6-dihydro-3-pyridazinyl)-6-phenyl-4-pyrimidinyl]oxy}acetic acid], for which the melting point is 215 to 217 °C. Consider `CNC(=O)COc1nc(N)nc(-c2ccccc2)c1-c1ccc(=O)n(C(C)C)n1` [Example 101, 2-{[2-amino-5-(1-isopropyl-6-oxo-1,6-dihydro-3-pyridazinyl)-6-phenyl-4-pyrimidinyl]oxy}-N-methylacetamide], for which the melting point was in the range of 204 to 205.5 °C. The same measure for `CC(C)n1nc(-c2c(OCC(=O)N(C)C)nc(N)nc2-c2ccccc2)ccc1=O` [Example 102, 2-{[2-Amino-5-(1-isopropyl-6-oxo-1,6-dihydro-3-pyridazinyl)-6-phenyl-4-pyrimidinyl]oxy}-N,N-dimethylacetamide]: 133 to 135.5 °C; for `CC(C)n1nc(-c2c(OCC(=O)NC3CC3)nc(N)nc2-c2ccccc2)ccc1=O` [Example 103, 2-{[2-Amino-5-(1-isopropyl-6-oxo-1,6-dihydro-3-pyridazinyl)-6-phenyl-4-pyrimidinyl]oxy}-N-cyclopropylacetamide]: 87 to 92 °C; for `CC(C)n1nc(-c2c(OCCN)nc(N)nc2-c2ccccc2)ccc1=O` [Example 104, 6-[2-amino-4-(2-aminoethoxy)-6-phenyl-5-pyrimidinyl]-2-isopropyl-3(2H)-pyridazinone]: 213 to 216 °C. The same measure for `CC(C)n1nc(-c2c(N)nc(N)nc2-c2ccccc2)ccc1=O` [Example 105, 6-(2,4-diamino-6-phenyl-5-pyrimidinyl)-2-isopropyl-3(2H)-pyridazinone]: 258 to 260 °C; for `CNc1nc(N)nc(-c2ccccc2)c1-c1ccc(=O)n(C(C)C)n1` [Example 106, 6-[2-Amino-4-(methylamino)-6-phenyl-5-pyrimidinyl]-2-isopropyl-3(2H)-pyridazinone]: 268 to 270 °C. Regarding `CC(C)n1nc(-c2c(-c3ccccc3)nc(N)nc2N(C)C)ccc1=O` [Example 107, 6-[2-Amino-4-(dimethylamino)-6-phenyl-5-pyrimidinyl]-2-isopropyl-3(2H)-pyridazinone], the melting point lay within 293 to 296 °C.

Regarding `CCNc1nc(N)nc(-c2ccccc2)c1-c1ccc(=O)n(C(C)C)n1` [Example 108, 6-[2-Amino-4-(ethylamino)-6-phenyl-5-pyrimidinyl]-2-isopropyl-3(2H)-pyridazinone], the melting point is 208 to 209 °C. The same measure for `CCCNc1nc(N)nc(-c2ccccc2)c1-c1ccc(=O)n(C(C)C)n1` [Example 109, 6-[2-Amino-4-phenyl-6-(propylamino)-5-pyrimidinyl]-2-isopropyl-3(2H)-pyridazinone]: 209 to 212 °C; for `CC(C)Nc1nc(N)nc(-c2ccccc2)c1-c1ccc(=O)n(C(C)C)n1` [Example 110, 6-[2-Amino-4-(isopropylamino)-6-phenyl-5-pyrimidinyl]-2-isopropyl-3(2H)-pyridazinone]: 234 to 236 °C. The same measure for `C=CCNc1nc(N)nc(-c2ccccc2)c1-c1ccc(=O)n(C(C)C)n1` [Example 111, 6-[4-(Allylamino)-2-amino-6-phenyl-5-pyrimidinyl]-2-isopropyl-3(2H)-pyridazinone]: 191.5 to 192.5 °C. As to `CC(C)n1nc(-c2c(NC3CC3)nc(N)nc2-c2ccccc2)ccc1=O` [Example 112, 6-[2-Amino-4-(cyclopropylamino)-6-phenyl-5-pyrimidinyl]-2-isopropyl-3(2H)-pyridazinone], the melting point lay in the range of 237 to 239 °C. The result for `CC(C)n1nc(-c2c(NC(C)(C)C)nc(N)nc2-c2ccccc2)ccc1=O` [Example 113, 6-[2-Amino-4-(tert-butylamino)-6-phenyl-5-pyrimidinyl]-2-isopropyl-3(2H)-pyridazinone] reads 202 to 204 °C.

Take `CC(C)n1nc(-c2c(NCCO)nc(N)nc2-c2ccccc2)ccc1=O` [Example 114, 6-{2-amino-4-[(2-hydroxyethyl)amino]-6-phenyl-5-pyrimidinyl}-2-isopropyl-3(2H)-pyridazinone]: the melting point was in the range of 221.5 to 223.5 °C. In turn, `COCCNc1nc(N)nc(-c2ccccc2)c1-c1ccc(=O)n(C(C)C)n1` [Example 115, 6-{2-amino-4-[(2-methoxyethyl)amino]-6-phenyl-5-pyrimidinyl}-2-isopropyl-3(2H)-pyridazinone] displayed a melting point of 168 to 170 °C.

Consider `CC(C)n1nc(-c2c(NCCN)nc(N)nc2-c2ccccc2)ccc1=O` [Example 116, 6-{2-Amino-4-[(2-aminoethyl)amino]-6-phenyl-5-pyrimidinyl}-2-isopropyl-3(2H)-pyridazinone], for which the melting point lay in the range of 194 to 197 °C. As for `CC(C)n1nc(-c2c(NCCN(C)C)nc(N)nc2-c2ccccc2)ccc1=O` [Example 117, 6-(2-Amino-4-{[2-(dimethylamino)ethyl]amino}-6-phenyl-5-pyrimidinyl)-2-isopropyl-3(2H)-pyridazinone], the melting point was 164 to 165.5 °C. `CC(C)n1nc(-c2c(NCC(N)=O)nc(N)nc2-c2ccccc2)ccc1=O` [Example 118, 2-{(2-amino-5-(1-isopropyl-6-oxo-1,6-dihydro-3-pyridazinyl)-6-phenyl-4-pyrimidinyl]amino}acetamide] had a melting point of 235 to 237.5 °C.

`CC(C)n1nc(-c2c(-c3ccccc3)nc(N)nc2N(C)Cc2ccccc2)ccc1=O` [Example 120, 6-{2-amino-4-[benzyl(methyl)amino]-6-phenyl-5-pyrimidinyl}-2-isopropyl-3(2H)-pyridazinone] yielded a melting point of 167 to 168 °C.
